Results from patent US11679103B2, “Multi-targeting agents for Alzheimer's disease therapy” (The Regents of the University of California, priority 2018, dated 2023).

Tests used:
Aβ amyloid plaques = assay: [3H]PIB competition autoradiography in postmortem human AD frontal cortex slices; type: binding; conditions: for effect on [3H]PIB binding: 1 μM; for GM/WM ratio of [3H]PIB binding: human AD frontal cortex; for displacement of [3H]PIB (words, discussion): FIG. 10 and 11; for effect on [3H]PIB binding level: GM and WM
Experimental: Post-mortem human AD frontal cortex sections (10 μm thick; human brain tissue obtained from Banner Sun Health Research Institute, Sun City, Ariz.) were preincubated in 10% alcohol PBS buffer for 10 minutes. The brain sections were placed in a glass chamber and incubated with [^3H]PIB (2 μCi/cc) in 10% alcohol PBS buffer, pH 7.4 at 37° C. for 1 h. The slices were then washed with cold 10% alcohol PBS buffer (2×3 mins), cold deionized water 1 min, respectively. The brain sections were air dried, exposed overnight on a phosphor film, and then placed on the Phosphor Autoradiographic Imaging System/Cyclone Storage Phosphor System (Packard Instruments Co). Regions of interest (ROIs) were drawn on the slices and the extent of binding of [^3H]PIB was measured with DLU/mm^2 using the OptiQuant acquisition and analysis program (Packard Instruments Co).
The Aβ plaque-α4β2* nAChR multi-agent was tested for binding to Aβ amyloid plaques in human postmortem AD brain frontal cortex slices labeled with [^3H]PIB (75-90 year olds, Braak score V-VI).

Amyloid β = target: T1, Amyloid β (Homo sapiens, UniProt P05067); conditions: cited from earlier work
T1 construct: host or cells: AD patients (clinical trials)

α4β2* nAChRs = α4β2* nAChRs (Rattus norvegicus, UniProt P09483+P12390); conditions: rat brain slices; for displacement of [3H]cytisine: 100 nM
Experimental: In Vitro Studies: Ex vivo rat brain slices were prepared at 10 μm thick using a Leica 1850 cryotome and used for [^3H]cytisine binding. […] The apposed phosphor screens were read and analyzed by OptiQuant acquisition and analysis program of the Cyclone Storage Phosphor System (Packard Instruments Co., Boston, Mass.). Region-of-interest of same size were drawn and analyzed on brain regions using OptiQuant software and binding of [^3H]cytisine measured in Digital Light Units/mm^2 (DLU/mm^2). Data was analyzed using following procedure: (a) the non-specific binding of [^3H]cytisine was subtracted for all samples; (b) the specific binding was normalized to 100% (no competitive ligand) and (c) the binding isotherms were fit to the Hill equation (KELL BioSoft software (v 6), Cambridge, U.K.).
Nicotinic receptor binding: The Aβ plaque-α4β2* nAChR multi-agents were tested for their affinity to the α4β2* nAChRs using rat brain slices labeled with [^3H]cytisine. […] Three brain regions analyzed included thalamus, frontal cortex and subiculum.

[1] = 1 μM test agent, control GM/WM approx. 2
[2] = 10 μM test agent, control GM/WM approx. 3

Chain of α4β2* nAChRs (P09483 31-630): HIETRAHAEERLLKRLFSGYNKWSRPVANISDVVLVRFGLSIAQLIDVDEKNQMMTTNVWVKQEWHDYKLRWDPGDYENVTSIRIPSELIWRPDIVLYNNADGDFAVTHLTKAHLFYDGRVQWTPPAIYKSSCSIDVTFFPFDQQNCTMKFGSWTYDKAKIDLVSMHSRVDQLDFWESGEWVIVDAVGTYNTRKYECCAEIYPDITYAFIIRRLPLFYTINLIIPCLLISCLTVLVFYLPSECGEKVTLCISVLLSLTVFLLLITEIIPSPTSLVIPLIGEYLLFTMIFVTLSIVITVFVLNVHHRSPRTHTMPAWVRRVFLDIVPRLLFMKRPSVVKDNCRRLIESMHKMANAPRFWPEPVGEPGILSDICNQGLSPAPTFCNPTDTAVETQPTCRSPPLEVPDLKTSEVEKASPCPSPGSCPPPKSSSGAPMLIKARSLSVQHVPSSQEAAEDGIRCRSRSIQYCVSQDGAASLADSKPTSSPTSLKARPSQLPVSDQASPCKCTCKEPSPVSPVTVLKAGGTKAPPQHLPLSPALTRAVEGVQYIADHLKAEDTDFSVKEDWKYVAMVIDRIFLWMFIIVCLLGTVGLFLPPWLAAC
Chain of α4β2* nAChRs (P12390 25-500): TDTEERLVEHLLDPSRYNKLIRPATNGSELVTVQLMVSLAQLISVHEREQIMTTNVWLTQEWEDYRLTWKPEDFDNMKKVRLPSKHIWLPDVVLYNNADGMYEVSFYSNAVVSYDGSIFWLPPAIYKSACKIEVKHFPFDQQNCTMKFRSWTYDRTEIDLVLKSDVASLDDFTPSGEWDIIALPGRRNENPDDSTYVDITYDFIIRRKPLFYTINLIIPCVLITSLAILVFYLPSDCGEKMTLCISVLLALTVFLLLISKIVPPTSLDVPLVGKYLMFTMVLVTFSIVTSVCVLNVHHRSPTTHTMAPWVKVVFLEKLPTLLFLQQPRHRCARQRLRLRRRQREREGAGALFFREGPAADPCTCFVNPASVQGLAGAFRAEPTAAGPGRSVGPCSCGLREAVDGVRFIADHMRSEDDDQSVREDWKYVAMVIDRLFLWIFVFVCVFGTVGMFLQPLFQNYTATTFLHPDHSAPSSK

| Compound | effect on [3H]PIB binding (Aβ amyloid plaques) | GM/WM ratio of [3H]PIB binding (Aβ amyloid plaques; [1]) | displacement of [3H]PIB (words, discussion) (Aβ amyloid plaques; human frontal cortex) | GM/WM ratio of [3H]PIB binding (Aβ amyloid plaques; [2]) | effect on [3H]PIB binding level (Aβ amyloid plaques; 10 μM) | other results |
| --- | --- | --- | --- | --- | --- | --- |
| CNc1ccc(N=Nc2ccc(N(C)C)cc2)cc1 [TAZA, N,N,N′-trimethyl-4,4′-azodianiline] | significant displacement | 1.3 | greater than observed by curcumin | – | – | – |
| COc1cc(/C=C/C(=O)O)ccc1O [FA, ferulic acid] | did not significantly affect the binding | approx. 2 | little displacement | 2 | higher levels | – |
| Fexofenadine curcuminate [CUR-FEX] | – | – | largest displacement | 1.96 | lower binding | reduction of GM/WM ratio of [3H]PIB (Aβ amyloid plaques; human AD frontal cortex (FIG. 10, 10 μM)): 35% |
| Solanezumab: anti-amyloid monoclonal antibody | – | – | – | – | – | Aβ plaque load measured by PET imaging, before vs after antibody treatment (Amyloid β; large clinical trials): did not change significantly; Outcome (clinical) (Amyloid β; mild to moderate AD subjects): Did not improve |
| Fexofenadine-(3-methoxy-4-(1′-aminobutyryloxy)cinnamic acid [KD003] | – | – | – | 2.4 | higher levels | – |
| 5-(3′-Ethyl 3-methoxy-4-propyloxycinnamate)-3-(2-(S)-pyrrolidinylmethoxy)pyridine [GKS-006] | – | – | – | – | – | displacement of [3H]cytisine (α4β2* nAChRs): Displacement of significant amounts; affinity at α4β2* nAChR sites (α4β2* nAChRs): high affinity |
| COc1cc(/C=C/C(=O)CC(=O)/C=C/c2ccc(O)c(OC)c2)ccc1O [Curcumin, curcumin] | – | – | significant displacement effect | 1.5 | – | reduction of [3H]PIB binding (Aβ amyloid plaques; 10 μM, human frontal cortex): 50% |
| 5-(3-methoxy-4-propyloxycinnamate)-3-(2-(S)-pyrrolidinylmethoxy)pyridine [GKS-007] | some inhibitory effect | no significant GM/WM ratio reduction | – | – | – | displacement of [3H]cytisine (α4β2* nAChRs): Displacement of significant amounts; affinity at α4β2* nAChR sites (α4β2* nAChRs): high affinity |
